Data as given in patent US11760773B2, “Small molecule drug conjugates of gemcitabine monophosphate” (MaveriX Oncology, Inc., priority 2018, dated 2023).
Where two headings read alike, the source gives them in different places.

Tests used:
[1] = tested on: UT-SCC-16A; experiment: Tumor cell proliferation (alamarBlue) cytotoxicity assay, UT-SCC-16A; format: cell-based, human; conditions: Homo sapiens, 72 hours treatment
Procedure: (§1) A tumor cell proliferation assay was used to determine cytotoxicity IC50 values for the phosphate prodrug Compounds 1-9, the parent non-phosphorylated SMDC parent compounds, and the effector (gemcitabine) across eight primary early-passage human head and neck squamous cell carcinoma cell lines including UT-SCC-5, UT-SCC-8, UT-SCC-9, UT-SCC-10, UT-SCC-14, UT-SCC-16A, UT-SCC-16B, and UT-SCC-24A.
(§2) UTSCC cells were seeded at 4000 cells/100 I/well on 96-well black clear-bottom tissue culture plate. Cells were incubated at 37° C. and 5% CO2 overnight to allow them to recover and re-attach. The next day cells were treated with the test compound (0-100 μM) for 72 hours. After treatment, cell proliferation was measured by Fluorescent quantitation of alamarBlue reagent. The alamarBlue assay incorporates a fluorometric/colorimetric growth indicator based on detection of metabolic activity. Specifically, resazurin, the active ingredient of alamarBlue reagent, is blue in color and virtually non-fluorescent. Upon entering cells, resazurin is reduced to resorufin, a compound that is red in color and highly fluorescent.
(§3) Continued cell growth maintains a reduced environment, therefore increasing the overall fluorescence and color of the media surrounding cells. The fluorescence intensity of alamarBlue reagent was directly proportional to cell number. To perform the alamarBlue assay, 10 I of alamarBlue reagent was added to each well and the plate was incubated at 37° C. for an additional 2 hour. Fluorescence intensity was measured at an excitation of 530 nm and an emission of 590 nm using a BioTek Synergy™ 2 microplate reader.
(§4) Cell proliferation assays in triplicate were performed at each concentration. The fluorescent intensity data were analyzed using the computer software, Graphpad Prism. In the absence of the compound, the fluorescent intensity (Ft) in each data set was defined as 100%. In the absence of cells, the fluorescent intensity (Fb) in each data set was defined as 0%. The percent cell in the presence of each compound was calculated according to the following equation: % cell=(F−Fb)/(Ft−Fb), where F=the fluorescent intensity in the presence of the compound, Fb=the fluorescent intensity in the absence of cells, and Ft=the fluorescent intensity in the absence of the compound. The values of % cell versus a series of compound concentrations were then plotted using non-linear regression analysis of Sigmoidal dose-response curve generated with the equation Y=B+(T−B)/1+10^((Log EC50-X)×Hill Slope) where Y=percent cell, B=minimum percent cell, T=maximum percent cell, X=logarithm of compound and Hill Slope=slope factor or Hill coefficient. The IC50 value was determined by the concentration causing a half-maximal percent activity.

[2] = tested on: UT-SCC-9; experiment: Tumor cell proliferation (alamarBlue) cytotoxicity assay, UT-SCC-9; format: cell-based, human; conditions: Homo sapiens; UT-SCC-9, 72 hours treatment
Procedure: as §1, §2, §3, §4

[3] = tested on: UT-SCC-14; experiment: Tumor cell proliferation (alamarBlue) cytotoxicity assay, UT-SCC-14; format: cell-based, human; conditions: Homo sapiens; UT-SCC-14, 72 hours treatment
Procedure: as §1, §2, §3, §4

[4] = tested on: UT-SCC-24A; experiment: Tumor cell proliferation (alamarBlue) cytotoxicity assay, UT-SCC-24A; format: cell-based, human; conditions: Homo sapiens, 72 hours treatment
Procedure: as §1, §2, §3, §4

[5] = tested on: UT-SCC-8; experiment: Tumor cell proliferation (alamarBlue) cytotoxicity assay, UT-SCC-8; format: cell-based, human; conditions: Homo sapiens; UT-SCC-8, 72 hours treatment
Procedure: as §1, §2, §3, §4

[6] = Metabolic stability in liver hepatocytes, human; format: in vitro ADME
[7] = Comparative dog plasma PK of Int 1-4 versus gemcitabine (study k); format: in vivo; conditions: male beagle dog; for AUC(0-inf): read-out: AUC0-inf; for Cmax: read-out: Cmax; for MRT inf: read-out: MRT0-inf; for MRT last: read-out: MRT0-last
Procedure: Objectives: to compare the plasma pharmacokinetics and stability of Int-4 in plasma following single intravenous infusion administration of Int 1-4 at 5 mg/kg and 10 mg/kg versus gemcitabine at 5 mg/kg in the male Beagle dog

[8] = tested on: UT-SCC-5; experiment: Tumor cell proliferation (alamarBlue) cytotoxicity assay, UT-SCC-5; format: cell-based, human; conditions: Homo sapiens; UT-SCC-5, 72 hours treatment
Procedure: as §1, §2, §3, §4

[9] = Metabolic stability in liver hepatocytes, monkey; format: in vitro ADME
[10] = Int 1-4 dog plasma PK (study j); format: in vivo; conditions: male beagle dog; for AUC(0-inf): read-out: AUC0-inf; for MRT inf: read-out: MRT0-inf; for MRT last: read-out: MRT0-last
Procedure: Objectives: to compare the plasma pharmacokinetics and stability of Int 1-4 in plasma following single intravenous infusion administration of t 1-4 at 10 mg/kg and 20 mg/kg in the male Beagle dog.

[11] = Liver microsomal stability, human; format: in vitro ADME
[12] = Metabolic stability in liver hepatocytes, dog; format: in vitro ADME
[13] = Metabolic stability in liver hepatocytes, rat; format: in vitro ADME
[14] = Metabolic stability in liver hepatocytes, mouse; format: in vitro ADME
[15] = tested on: UT-SCC-10; experiment: Tumor cell proliferation (alamarBlue) cytotoxicity assay, UT-SCC-10; format: cell-based, human; conditions: Homo sapiens; UT-SCC-10, 72 hours treatment
Procedure: as §1, §2, §3, §4

[16] = Comparative dog plasma PK of Int 1-4 versus gemcitabine (study k); format: in vivo; conditions: male beagle dog, after iv gemcitabine 5.29 mg/kg, read-out: MRT0-inf
[17] = after iv Int 1-4 5 mg/kg (study k)
[18] = after iv Int 1-4 10 mg/kg (study k)
[19] = after iv gemcitabine 5.29 mg/kg
[20] = after iv Int 1-4 10 mg/kg (study j)
[21] = after iv Int 1-4 20 mg/kg (study j)

Compound: Nc1ccn([C@@H]2O[C@H](CO)[C@@H](O)C2(F)F)c(=O)n1 [Gemcitabine, gemcitabine]
- IC50 [1]: 61 nM
- IC50 [2]: 35 nM
- IC50 [3]: 6 nM
- IC50 [4]: 14 nM
- IC50 [5]: 22 nM
- Slope Mean ± SE [6]: −0.00684 ± 0.001905
- half-life ([6]; read-out: t1/2 mean ± SE): 1.69 ± 0.47 h
- AUC(0-t) [7, 17]: 2330 ng·h/mL
- half-life [7, 17]: 2.01 h
- AUC(0-inf) [7, 17]: 2390 ng·h/mL
- Cmax [7, 17]: 872 ng/mL
- MRT inf [7, 17]: 2.7 h
- MRT last [7, 17]: 2.48 h
- AUC(0-t) [7, 18]: 4140 ng·h/mL
- half-life [7, 18]: 1.6 h
- AUC(0-inf) [7, 18]: 4290 ng·h/mL
- MRT inf [7, 18]: 2.45 h
- MRT last [7, 18]: 2.16 h
- AUC(0-t) [7, 19]: 8230 ng·h/mL
- C0 [7, 19]: 11500 ng/mL
- clearance [7, 19]: 11 mL/min/kg
- half-life [7, 19]: 2.04 h
- AUC(0-inf) [7, 19]: 8600 ng·h/mL
- Cmax [7, 19]: 8620 ng/mL
- MRT last [7, 19]: 2.19 h
- Vd ([7]; after iv gemcitabine 5.29 mg/kg, read-out: Vdss): 1.61 L/kg
- IC50 [8]: 9 nM
- Slope Mean ± SE [9]: 0.001817 ± 0.001897
- AUC(0-t) [10, 20]: 6160 ng·h/mL
- half-life [10, 20]: 3.1 h
- AUC(0-inf) [10, 20]: 6180 ng·h/mL
- MRT inf [10, 20]: 3.56 h
- MRT last [10, 20]: 3.47 h
- AUC(0-t) [10, 21]: 7690 ng·h/mL
- half-life [10, 21]: 3.55 h
- AUC(0-inf) [10, 21]: 7880 ng·h/mL
- MRT inf [10, 21]: 3.28 h
- MRT last [10, 21]: 2.69 h
- half-life ([11]; human liver microsomes): 0.335 h
- Compound Remaining (% of 0 min) 0 min ([11]; human liver microsomes, 0 min): 100 % of 0 min
- Compound Remaining (% of 0 min) 5 min ([11]; human liver microsomes, 5 min): 113 % of 0 min
- Compound Remaining (% of 0 min) 15 min ([11]; human liver microsomes, 15 min): 69.1 % of 0 min
- Compound Remaining (% of 0 min) 30 min ([11]; human liver microsomes, 30 min): 48.6 % of 0 min
- Compound Remaining (% of 0 min) 45 min ([11]; human liver microsomes, 45 min): 22.4 % of 0 min
- Compound Remaining (% of 0 min) control ([11]; human liver microsomes, control): 98.1 % of 0 min
- microsomal CLint ([11]; human, liver microsomes): 68.8 µL/min/mg
- Slope Mean ± SE [12]: 0.000126 ± 0.001156
- Slope Mean ± SE [13]: 0.00055 ± 0.001504
- Slope Mean ± SE [14]: −0.000512 ± 0.001111
- half-life ([14]; read-out: t1/2 mean ± SE): 22.5 ± 48.9 h
- IC50 [15]: 9 nM
- MRT inf [16]: 2.5 h
